This note sets out measurements from patent publication US6355695B1, “Substituted heterocycles” (Zeneca Limited, priority 1995, dated 2002).

Where a name gives a salt, the structure may show the parent alone.

One may read the Ki as the dissociation constant of the complex between target and ligand, obtained from inhibition or displacement. A high value points to a looser hold on the target.

In one assay the test system is guinea pig trachea. As to the kind of experiment: Guinea Pig Assay (Test B): functional assay in guinea pig trachea, antagonism of agonist NKA or [b-ala^8]-NKA(4-10). The format is cell-based. The note with it: Cavia porcellus, read-out: pKB in Test B (converted). The source says: Guinea Pig Assay (Test B)
Assay [1] addresses T1, human NK2 receptor expressed in Mouse Erythroleukemia (MEL) cells (Homo sapiens, UniProt P21452).
T1 construct: expressed in transfected cells; host or cells: Mouse Erythroleukemia (MEL) cells
T1 sequence (P21452 1-398): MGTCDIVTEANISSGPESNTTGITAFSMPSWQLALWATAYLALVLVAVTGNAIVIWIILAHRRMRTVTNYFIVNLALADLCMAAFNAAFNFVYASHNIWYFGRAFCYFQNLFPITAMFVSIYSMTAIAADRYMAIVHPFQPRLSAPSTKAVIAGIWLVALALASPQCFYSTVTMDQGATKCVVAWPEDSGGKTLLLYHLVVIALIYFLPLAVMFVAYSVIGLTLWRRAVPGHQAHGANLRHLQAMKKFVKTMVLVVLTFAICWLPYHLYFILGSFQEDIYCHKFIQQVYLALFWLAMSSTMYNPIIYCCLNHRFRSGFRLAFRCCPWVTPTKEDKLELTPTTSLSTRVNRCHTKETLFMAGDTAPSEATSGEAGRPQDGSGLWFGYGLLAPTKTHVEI
As to the kind of experiment: Neurokinin A (NKA) Receptor-binding Assay (Test A). The text has this:
Neurokinin A (NKA) Receptor-binding Assay (Test A)

On to `O=C1NCCCN1C1CCN(CCC(Cn2cnnc2-c2ccccc2)c2ccc(Cl)c(Cl)c2)CC1` (centres unmarked) [Example 3, 1-[1-[3-(3,4-Dichlorophenyl)-4-(2-phenyl-1,3,4-triazol-1-yl)butyl]piperidin-4-yl]tetrahydropyrimidin-2-one hydrochloride], for which the Kb in the assay with guinea pig trachea is 2 nM. `OC1(c2ccccc2)CCN(CCC(Cn2ccnc2-c2ccccc2)c2ccc(Cl)c(Cl)c2)CC1` (centres unmarked) [Example 2, 1-[3-(3,4-Dichlorophenyl)-4-(2-phenylimidazol-1-yl)butyl]-4-hydroxy-4-phenylpiperidine dihydrochloride]: the inhibition constant Ki in assay [1] is 23 nM.
